In US20250230193A1, “CYCLIC COMPOUND HAVING SELECTIVE KRAS INHIBITORY EFFECT ON HRAS AND NRAS” (CHUGAI SEIYAKU KABUSHIKI KAISHA, priority 2022, published 2025):
Where a SMILES comes first, the peptide text is derived from it. Bridges are numbered along the chain shown (N, C = ends). [ ]: non-standard residue; d: D form. The star is where a group is joined. hPhe(3-Cl-4-CF3) = N[C@@H](CCc1ccc(C(F)(F)F)c(Cl)c1)C(=O)O; NPrPhe(4-CF3) = CCCN[C@@H](Cc1ccc(C(F)(F)F)cc1)C(=O)O; Abu(4,4,4-F3) = N[C@@H](CC(F)(F)F)C(=O)O; NMeGly(cPent) = CN[C@H](C(=O)O)C1CCCC1; NMeD = CN[C@@H](CC(=O)O)C(=O)O; NMeL = CN[C@@H](CC(C)C)C(=O)O; Morpholide = C1CN(*)CCO1; Ac5c = NC1(C(=O)O)CCCC1; Aze = O=C(O)[C@@H]1CCN1; Sar = CNCC(=O)O

Columns and labels:
[1] = target: GDP-bound NRAS wild-type protein (Homo sapiens, UniProt P01111); experiment: Binding to NRAS by surface plasmon resonance (SPR), Single Cycle Kinetics; conditions: for NRAS/KRAS (ratio of KD value with respect to NRAS to KD value with respect to KRAS): GDP-bound NRAS wild-type vs GDP-bound KRAS wild-type; for NRAS/KRAS (ratio of KD value with respect to GDP-bound NRAS wild-type protein to KD value with respect to KRAS): class symbols
Sequence of GDP-bound NRAS wild-type protein (P01111 whole entry): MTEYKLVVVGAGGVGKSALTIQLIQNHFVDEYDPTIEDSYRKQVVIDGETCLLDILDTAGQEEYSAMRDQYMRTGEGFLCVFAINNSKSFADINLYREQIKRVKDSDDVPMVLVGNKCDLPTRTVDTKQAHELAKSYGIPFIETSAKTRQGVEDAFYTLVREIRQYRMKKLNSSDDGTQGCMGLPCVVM

[2] = target: GDP-bound HRAS wild-type protein (Homo sapiens, UniProt P01112); experiment: Binding to HRAS by surface plasmon resonance (SPR), Single Cycle Kinetics; conditions: for HRAS/KRAS (ratio of KD value with respect to HRAS to KD value with respect to KRAS): GDP-bound HRAS wild-type vs GDP-bound KRAS wild-type; for HRAS/KRAS (ratio of KD value with respect to GDP-bound HRAS wild-type protein to KD value with respect to KRAS): class symbols
Sequence of GDP-bound HRAS wild-type protein (P01112 whole entry): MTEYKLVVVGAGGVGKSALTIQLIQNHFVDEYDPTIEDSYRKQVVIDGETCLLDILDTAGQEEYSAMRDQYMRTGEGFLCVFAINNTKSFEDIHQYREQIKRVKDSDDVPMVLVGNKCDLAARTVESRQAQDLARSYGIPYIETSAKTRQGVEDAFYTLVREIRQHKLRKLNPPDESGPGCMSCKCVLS

SMILES	NRAS/KRAS (ratio of KD value with respect to NRAS to KD value with respect to KRAS) ([1]; SPR)	HRAS/KRAS (ratio of KD value with respect to HRAS to KD value with respect to KRAS) ([2]; SPR)	NRAS/KRAS (ratio of KD value with respect to GDP-bound NRAS wild-type protein to KD value with respect to KRAS) ([1]; KD ratio NRAS/KRAS)	HRAS/KRAS (ratio of KD value with respect to GDP-bound HRAS wild-type protein to KD value with respect to KRAS) ([2]; KD ratio HRAS/KRAS)	other results
CCC(CC)[C@H]1C(=O)N(C)[C@H](C(=O)N(C)C)CC(=O)N(C)[C@@H](COC)C(=O)N[C@@H]([C@@H](C)CC)C(=O)N(C2CC2)CC(=O)N(C)[C@H]2C/C=C\CCN(C2=O)[C@@H](CC2CCCCC2)C(=O)N(C)CC(=O)N[C@@H](CCc2cc(F)c(C(F)(F)F)c(F)c2)C(=O)N2C[C@H](OC(C)C)C[C@H]2C(=O)NC2(CC(C)(C)C2)C(=O)N1C [PP2515]	A (a compound having 10 or more and less than 20 is denoted as A)	A (a compound having 10 or more and less than 20 is denoted as A)			
CCC(CC)[C@H]1C(=O)N(C)[C@H](C(=O)N(C)C)CC(=O)N(C)[C@@H](COC)C(=O)N[C@@H]([C@@H](C)CC)C(=O)N2CCC[C@H]2C(=O)N(C)[C@H]2C/C=C\CCN(C2=O)[C@@H](Cc2ccc(C(F)(F)F)cc2)C(=O)N(C)CC(=O)N[C@@H](CCc2ccc(Cl)c(Cl)c2)C(=O)N2C[C@H](OC(C)C)C[C@H]2C(=O)NC2(CC(C)(C)C2)C(=O)N1C [PP2639]			AA (a compound having 20 or more is denoted as AA)	A (a compound having 10 or more and less than 20 is denoted as A)	
CC[C@H](C)[C@@H]1NC(=O)[C@H](COC)N(C)C(=O)C[C@@H](C(=O)N(CC)CC)N(C)C(=O)[C@H](C2CCCC2)N(C)C(=O)C2(CC(C)(C)C2)NC(=O)[C@@H]2C[C@H](C)CN2C(=O)[C@H](CCc2ccc(C(F)(F)F)c(OC)c2)NC(=O)CN(C)C(=O)[C@H](Cc2ccc(C)cc2)N2CC/C=C\C[C@@H](C2=O)N(C)C(=O)CN(C)C1=O [PP2441]	AA (a compound having 20 or more is denoted as AA)	A (a compound having 10 or more and less than 20 is denoted as A)			
CCC[C@H]1C(=O)N[C@@H]([C@@H](C)CC)C(=O)N(C)CC(=O)N(C)[C@H]2C/C=C\CCN(C2=O)[C@@H](Cc2ccc(C)cc2)C(=O)N(C)CC(=O)N[C@@H](CCc2ccc3sc(C)c(C)c3c2)C(=O)N2C[C@H](OCC)C[C@H]2C(=O)NC2(CC(C)(C)C2)C(=O)N(C)[C@@H](C(CC)CC)C(=O)N(C)[C@H](C(=O)N(C)C)CC(=O)N1C [PP2902]			AA (a compound having 20 or more is denoted as AA)	A (a compound having 10 or more and less than 20 is denoted as A)	
CCCOC[C@H]1C(=O)N[C@@H]([C@@H](C)OCC)C(=O)N2CCC[C@H]2C(=O)N(C)[C@H]2C/C=C\CCN(C2=O)[C@@H](Cc2ccc(C)cc2)C(=O)N(C)CC(=O)N[C@@H](CCc2ccc(C(F)(F)F)c(OC)c2)C(=O)N2C[C@@H](C)C[C@H]2C(=O)NC2(CC(C)(C)C2)C(=O)N(C)[C@@H](C2CCCC2)C(=O)N(C)[C@H](C(=O)N(C)CC)CC(=O)N1C [PP2431]	A (a compound having 10 or more and less than 20 is denoted as A)	A (a compound having 10 or more and less than 20 is denoted as A)			
CCCN1C(=O)CN(C)C(=O)[C@@H]2CCN2C(=O)[C@H](CC(F)(F)F)NC(=O)[C@H](CC(C)C)N(C)C(=O)C[C@@H](C(=O)N2CCOCC2)N(C)C(=O)[C@H](C2CCCC2)N(C)C(=O)C2(CCCC2)NC(=O)[C@@H]2CCCN2C(=O)[C@H](CCc2ccc(C(F)(F)F)c(Cl)c2)NC(=O)CN(C)C(=O)[C@@H]1Cc1ccc(C(F)(F)F)cc1 [PP0304] ([NMeL][Abu(4,4,4-F3)][Aze][Sar][NPrPhe(4-CF3)][Sar][hPhe(3-Cl-4-CF3)]P[Ac5c][NMeGly(cPent)][NMeD]-Morpholide; lactam N-11)					NRAS/KRAS (ratio of KD for GDP-bound NRAS wild-type to KD for KRAS) ([1]; KD ratio NRAS/KRAS, SPR): B (a compound having 3 or more and less than 10 is denoted as B); HRAS/KRAS (ratio of KD for GDP-bound HRAS wild-type to KD for KRAS) ([2]; KD ratio HRAS/KRAS, SPR): B (a compound having 3 or more and less than 10 is denoted as B)
CCO[C@@H]1C[C@H]2C(=O)NC3(CC(C)(C)C3)C(=O)N(C)[C@@H](C3CCCC3)C(=O)N(C)[C@H](C(=O)N3CCCCC3)CC(=O)N(C)[C@H]3CCC/C=C/c4ccc(cc4)C[C@@H](C(=O)N(C)CC(=O)N[C@@H](CCc4ccc(Cl)c(Cl)c4)C(=O)N2C1)N1CC/C=C\C[C@@H](C1=O)N(C)C(=O)CN(C)C(=O)[C@H]([C@@H](C)CC)NC3=O [PP2578]			AA (a compound having 20 or more is denoted as AA)	A (a compound having 10 or more and less than 20 is denoted as A)	
